Data reported in paper PMC5103216, “Novel Agonist Bioisosteres and Common Structure-Activity Relationships for The Orphan G Protein-Coupled Receptor GPR139” (Scientific Reports, 2016).
pEC50: −log10 of the molar value.

Key:
Type in all cases: cell-based
GPR139 [1] = target: T1, GPR139 (Homo sapiens, UniProt Q6DWJ6); assay: cAMP dynamic 2 assay measuring Gs activation in CHO-139
T1 sequence (Q6DWJ6 1-353): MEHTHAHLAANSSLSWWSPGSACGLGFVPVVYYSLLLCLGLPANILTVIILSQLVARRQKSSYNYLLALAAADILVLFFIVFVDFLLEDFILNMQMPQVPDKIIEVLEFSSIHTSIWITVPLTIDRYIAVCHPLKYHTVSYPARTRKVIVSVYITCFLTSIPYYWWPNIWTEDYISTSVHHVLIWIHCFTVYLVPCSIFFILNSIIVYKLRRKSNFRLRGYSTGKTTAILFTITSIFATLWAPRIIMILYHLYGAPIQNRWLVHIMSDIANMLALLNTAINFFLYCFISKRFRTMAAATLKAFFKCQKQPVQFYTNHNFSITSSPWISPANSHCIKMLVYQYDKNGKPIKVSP
Procedure: The cAMP assay was performed as described in the work by Thomsen et al.[28] with few modifications. Breifly, CHO-139 and CHO-M1 was detached and resuspended to a concentration of 1 million cells/mL. 5 μL 2x concentrated compound (for Gs: +100 μM IBMX and for Gi: +100 μM IBMX +10 μM forskolin (Fsk)) and 5 μL cell suspension (5,000 cells/well) was mixed. The plate was sealed and incubated at room temperature for 30 min. Next, 10 μL detection reagents (lysis buffer containing 2.5% Eu^3+-anti-cAMP antibody and 2.5% cAMP-d2) was added and the plate was incubated for 1 hour at room temperature. The plate was read on an Envision (PerkinElmer, Waltham, MA, USA). The TR-FRET 665 nm/615 nm ratio, which is inversely proportional with the cAMP production, was used to determination the concentration of the cAMP response. […]
Supplementary Figure 1. cAMP dynamic 2 assay measuring Gs activation. 5,000 cells/well of CHO-139 (pink bars) or CHO-M1 (blue bars) cells are
incubated with the indicated compounds for 30 min at room temperature in the presence of 50 µM IBMX. 5 µM and 10 µM forskolin (Fsk) serves as positive
controls. The responses are one representative out of at two independent experiments performed in triplicates. Data points are means ± SD. […]
Data points are means ± SD.

GPR139 [2] = target: T1, GPR139; assay: IP-One HTRF assay measuring Gq activation in CHO-139; conditions: IP-One HTRF assay, CHO-139, 20 mM LiCl
Procedure: Figure 3 IP-One HTRF® assay measuring Gq activation. Concentration-response curves of 1a, 7c (racemic), L-Trp, L-Phe, DL43, DL126, DL24, DL22, DL132 and DL130 on (A) CHO-139 and (B) CHO-M1 in the IP-One assay (final conc of LiCl = 20 mM). The dotted line represent the [IP1] response from (A) 10 μM 1a and (B) 1 μM carbachol, which is an agonist for the muscarinic acethylcholine receptor M1 that activates the Gq coupled pathway. The graphs are means ± SEM based on three independent experiments performed in triplicates.
The IP-One assay was performed as described in the work by Thomsen et al.[28], with few modifications. Breifly, CHO-139 and CHO-M1 were detached and re-suspended to a concentration of 10 million cells/mL. 5 μL 2x concentrated compound (+40 mM LiCl) and 5 μL cell suspension (50,000 cells/well) was mixed. The plate was sealed and incubated at 37 °C for 1 hour. Next, 10 μL detection reagents (lysis buffer containing 2.5% Eu^3+-anti-IP1 antibody and 2.5% IP1-d2) was added and the plate was incubated for 1 hour at room temperature. The plate was read on an Envision (PerkinElmer, Waltham, MA, USA). The time resolved-fluorescence resonance energy transfer (TR-FRET) 665 nm/615 nm ratio, which is inversely proportional to the inositol monophosphate (IP1) accumulation, was used to determine the concentration of the IP1 response.

GPR139 [3] = target: T1, GPR139; assay: Fluo-4 Ca2+-assay in CHO-k1 cells stably expressing GPR139 (CHO-GPR139); conditions: for pEC50: CHO-GPR139, mean of at least three experiments; for Emax: CHO-K1, relative to 1a
Procedure: Compound 1a[11] was kindly provided by H. Lundbeck A/S, Denmark. Compound 7c (Enamine no: Z31449867) was tested as a racemate, as the (S)-form described by Janssen et al. was not commercially available. All compounds were dissolved to 20 mM in DMSO (Sigma, D2650) and subsequently diluted in a HEPES buffer (HBSS (Invitrogen, 14025) supplemented with 20 mM HEPES + 1 mM MgCl2 + 1 mM CaCl2, pH = 7.4) to a final concentration 0.5% DMSO in the assay. The DMSO level was kept constant for all concentrations of all compounds. DMSO was confirmed not to have any activity by itself at this concentration. L-Tryptophan (T0254) and L-Phenylalanine (P2126) were obtained from Sigma-Aldrich and dissolved directly in buffer.
All compounds were tested on a CHO-k1 cell line stably expressing GPR139 (CHO-GPR139) kindly provided by H. Lundbeck A/S, Denmark, and also on a CHO-k1 cell line stably expressing the M1 receptor (CHO-M1) (The Missouri S&T cDNA Resource Center, #CEM100TN00) to check for specificity. The CHO-GPR139 was grown in Dulbecco’s modified eagle medium (DMEM) F12-Kaighn’s (Gibco, 21127) supplemented with 10% dialysed fetal bovine serum (Gibco, 26400, United States origin), 1% GlutaMAX^TM-I (100X) (Gibco, 35050), and 100 units/mL penicillin and 100 μg/mL streptomycin (Gibco, 15140) and 1.0 mg/mL geneticin (Invitrogen, 1181103). CHO-M1 was grown in Ham’s F12 (Gibco, 21765) supplemented with 10% fetal bovine serum (Gibco, 10270, South America origin) +100 units/mL penicillin and 100 μg/mL streptomycin (Invitrogen, 15140–122) and 0,25 mg/mL geneticin (Life Technologies, 11811–031). Compound 1a and carbamoylcholine chloride (Sigma-Aldrich, C4382) were used as positive controls in the two cell lines, respectively.
30.000 cells/well were plated in black 96-well plates with flat clear bottoms (Corning, Falcon, 353219) and incubated overnight. The Fluo-4 dye loading solution (Invitrogen, F36206) was prepared according to the manufacturer’s instructions by dissolving it in HEPES buffer supplemented with 2.5 mM probenecid. 50 μL dye loading solution was added to each well. Cells were incubated with the Fluo-4 dye for 60 min at 37 °C, then washed with 100 μL HEPES buffer. 100 μL HEPES buffer supplemented with 2.5 mM probenecid was then added to each well and incubated in 10 minutes at 37 °C before measurement. 33 μL of the test compounds (4x concentrated) were added automatically after baseline measurements. Intracellular calcium change was recorded on a NOVOstar instrument (BMG Labtech) at 37 °C with an excitation filter of 485 nm and an emission filters 520 nm. Data originate from three independent experiments in triplicates.

Row | pEC50 (GPR139 [2]) | pEC50 (GPR139 [3]) | Emax (GPR139 [3]) | Compound | Gs response (cAMP) (GPR139 [1]) | fold lower potency than 1a (GPR139 [3])
1 | 5.38 | 6.35 | 105% | O=C(CN1CCCc2ccccc21)NNC(=O)c1ccc2c(c1)OCO2 [DL22] | None of the tested compounds induced Gs response | –
2 | 6.12 | 6.37 | 109% | COc1cc(OC)cc(C(=O)NNC(=O)C2CCCc3ccccc32)c1 (stereo not drawn) [DL24] | None of the tested compounds induced Gs response | –
3 | 5.25 | 6.39 | 91% | O=C(Cc1cccc2ccccc12)NNC(=O)c1ccc2c(c1)OCO2 [DL126] | None of the tested compounds induced Gs response | ~ 10 fold
4 | 5.30 | 6.05 | 89% | O=C(CNC(=O)c1ccc2c(c1)OCO2)NC1CCSc2ccc(F)cc21 (stereo not drawn) [DL130] | None of the tested compounds induced Gs response | –
5 | 5.38 | 6.30 | 94% | O=C(NCC(=O)N1CCCC1c1ccccc1)c1ccc2c(c1)OCO2 (stereo not drawn) [DL132] | None of the tested compounds induced Gs response | –

Row | Compound | pEC50 (GPR139 [2]) | pEC50 (GPR139 [3]) | Emax (GPR139 [3]) | Gs response (cAMP) (GPR139 [1]) | fold lower potency than 1a (GPR139 [3])
6 | CCn1c(C)nc2cc(C(=O)NNC(=O)Cc3cccc4ccccc34)ccc21 [DL43] | 5.02 | 6.44 | 97% | None of the tested compounds induced Gs response | ~ 10 fold
